Source: patent US12281102B2, “Inhibitors of APOL1 and methods of using same” (Vertex Pharmaceuticals Incorporated, priority 2020, dated 2025)
Like-named read-outs stand apart in the source and are kept apart here.

Target: T1, G1 APOL1 (Homo sapiens, UniProt O14791, I384M/S342G)
T1 construct: expressed in transfected cells
T1 sequence (O14791 28-398 S342G/I384M): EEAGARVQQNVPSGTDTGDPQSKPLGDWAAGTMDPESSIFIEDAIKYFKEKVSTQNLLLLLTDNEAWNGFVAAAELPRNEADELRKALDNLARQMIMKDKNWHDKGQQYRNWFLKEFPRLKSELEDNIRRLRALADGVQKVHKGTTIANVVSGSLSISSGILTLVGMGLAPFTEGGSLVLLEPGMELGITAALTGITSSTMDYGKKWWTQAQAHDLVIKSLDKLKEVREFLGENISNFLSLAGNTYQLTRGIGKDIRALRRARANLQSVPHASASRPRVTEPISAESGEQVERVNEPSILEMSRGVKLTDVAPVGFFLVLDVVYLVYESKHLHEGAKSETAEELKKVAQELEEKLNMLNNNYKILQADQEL
Experiment: Acute APOL1 Thallium Assay with inducible stable clones of HEK 293 cells
Type: cell-based
Settings: HEK 293 T-Rex inducible stable clone expressing G1 APOL1
From the text: Acute APOL1 Thallium Assay with Inducible Stable Clones of HEK 293 Cells
Apolipoprotein L1 (APOL1) proteins form potassium-permeable cation pores in the plasma membrane. APOL1 risk variants (G1 and G2) induce greater potassium flux than G0 in HEK293 cells. This assay exploits the permeability of thallium (T1+) through ligand-gated potassium channels. The dye produces a bright fluorescent signal upon binding to T1+ conducted through potassium channels. The intensity of the T1+ signal is proportional to the number of potassium channels in the open state. Therefore, it provides a functional indication of the potassium channel activities. During the initial dye-loading step, the T1+ indicator dye as an acetoxymethyl (AM) ester enters the cells through passive diffusion. Cytoplasm esterases cleave the AM ester and relieve its active thallium-sensitive form. The cells are then stimulated with T1+. The increase of fluorescence in the assay represents the influx of T1+ into the cell specifically through the potassium channel (i.e. through APOL1 pores), providing a functional measurement of potassium channel/pore activity. The Thallium assay is conducted with cells expressing G1 APOL1.
APOL1 Cell Line (HEK T-Rex Stable Inducible Cell Line)
• HEK T-Rex System • Tetracycline (Tet) inducible mammalian expression system. • Stably express the Tet repressor to regulate transcription. • Expression under the full-length CMV promoter. • APOL1 stable inducible cell line Clone used: G1 DC3.25 Tissue Culture Media Cell Culture Medium • DMEM+10% FBS+P/S+5 μg/mL blasticidin+1 μg/mL puromycin. • 500 mL DMEM+55 mL FBS+5 mL P/S+280 μL blasticidin S HCl (10 mg/mL)+56 μL puromycin (10 mg/mL). Cell Assay Medium • DMEM with 2% FBS+penicillin streptomycin. Reagents:
Instruments and Equipment • Nuaire cell culture hood, Cat. No. 540-600 • 37° C./5% CO2 incubator link to robotic arm, Liconic: STX110 • Molecular Devices FLIPR^Tetra High throughput cellular screening system, Cat. No. FT0324, Molecular Devices • ThermoFisher MultiDrop 384, Cat. No. 5840300 • Biotek Microfill, Cat. No. ASF1000A-4145 • BioRad TC10 cell counter, Cat. No. 145-0010 Assay Procedures Cells Scaled Up from Frozen Vials • APOL1 G1 3.25 (HEK293 T-Rex) frozen vials: 5 million cells per vial • Step 1, Day 1: Defrost frozen vial into T-225. • Step 2, Day 5: (when 85% confluent): Split one T-225 at 3×10^6 cells per flask. • Step 3, Day 8: Splits cells to set up for the assay plates as described below. Cell Culture
T-Rex APOL1 HEK cells are split twice per week to keep the confluence state below 85% of the culture flask surface area. Cells can be kept until passage 25.
• DMEM high glucose+10% FBS, +P/S, +5 μg/mL blasticidin, +1 μg/mL puromycin. • 500 mL DMEM, +55 mL FBS, +5 mL P/S, +280 μL blasticidin 10 mg/mL, +56 μL Puromycin 10 mg/mL. Assay Media • Opti-MEM reduced serum medium from Invitrogen. Day 1 Preparation of Cell Assay Plates • Culture medium is removed from the x cm^2 T-flask by aspiration. • The cell monolayer is rinsed with PBS 1× at room temperature. PBS is removed by aspiration. • Cells are trypsinized using Trypsin. • The flasks are incubated at room temperature for 2-3 minutes. • Complete DMEM medium is then added. Cell suspension is then transferred to a 50 mL Falcon polypropylene tube. • Cells are then counted using a BioRad TC10 cell counter and the required amount of cells are centrifuged at 1200 RPM for 5 minutes. Required amount is 1.3×10^6 cells/mL APOL1 T-Rex HEK cells. • The pellet is suspended in the assay medium. • Using the MultiDrop, add 20 μL to each well (corresponds to 26000 cells total per well) of a 384-well black, transparent, flat bottom Poly-D coated plate. • Tetracycline as prepared in the following section is added to the cells before plating to induce APOL1 expression. • Plates are left at room temperature for 20 to 30 minutes before incubation at 37° C. and 5% CO2. […]

[1] = read-out: Thallium Assay (IC50)

| SMILES | IC50 [1] | IC50 (Thallium Assay (IC50)) |
| --- | --- | --- |
| CC(C)(C)OC(=O)N1CC[C@H]1C(=O)NC[C@H]1C[C@H](c2c(-c3ccc(F)cc3)[nH]c3c(F)cc(F)cc32)C1 [Compound 216] | – | 250 to 1000 nM |
| CC(=O)NC1CCC(c2c(-c3ccc(F)cc3)[nH]c3c(F)cc(F)cc23)CC1 (stereo not shown) [Compound 435, N-(4-(5,7-difluoro-2-(4-fluorophenyl)-1H-indol-3-yl)cyclohexyl)acetamide] | > 1000 nM | – |
| CN(CC(=O)N[C@H]1C[C@H](c2c(-c3ccc(F)cc3)[nH]c3c(F)cc(F)cc32)C1)S(C)(=O)=O [Compound 103] | > 1000 nM | – |
| O=S(=O)(N[C@H]1C[C@H](c2c(-c3ccc(F)cc3)[nH]c3c(F)cc(F)cc32)C1)c1n[nH]c2ncccc12 [Compound 154] | > 1000 nM | – |
| NC1CC(c2c(-c3ccc(F)cc3)[nH]c3c(F)cc(F)cc23)C1 (stereo not shown) [Compound 14, 3-[5,7-difluoro-2-(4-fluorophenyl)-1H-indol-3-yl]cyclobutanamine] | – | < 250 nM |
| CC(C(=O)N[C@H]1C[C@@H](c2c(-c3ccc(F)cc3)[nH]c3c(F)cc(F)cc32)C1)n1ccnc1 (mixture of isomers) [Compound 40] | > 1000 nM | – |
| O=C(CCN1CCCC1=O)NC[C@H]1C[C@@H](c2c(-c3ccc(F)cc3)[nH]c3c(F)cc(F)cc32)C1 [Compound 326] | > 1000 nM | – |
| C[C@H](O)[C@H](CO)NS(=O)(=O)NC[C@H]1C[C@H](c2c(-c3ccc(F)cc3)[nH]c3c(F)cc(F)cc32)C1 [Compound 360] | > 1000 nM | – |
| NCCCNCC1CC(c2c(-c3ccc(F)cc3)[nH]c3c(F)cc(F)cc23)C1 (stereo not shown) [Compound 409] | > 1000 nM | – |
| CN1CCC(CC(=O)N[C@H]2C[C@@H](c3c(-c4ccc(F)cc4)[nH]c4c(F)cc(F)cc43)C2)C1 (stereo partly shown) [Compound 45] | > 1000 nM | – |
| O=C(CC1COC1)N[C@H]1C[C@H](c2c(-c3ccc(F)cc3)[nH]c3c(F)cc(F)cc32)C1 [Compound 138] | > 1000 nM | – |
| O=C1CC(C(=O)NC2CC(Cc3c(-c4ccc(F)cc4)[nH]c4c(F)cc(F)cc34)C2)C(=O)N1 (stereo not shown) [Compound 167] | > 1000 nM | – |
| O=C1NCCC1C(=O)NC[C@H]1C[C@@H](c2c(-c3ccc(F)cc3)[nH]c3c(F)cc(F)cc32)C1 (stereo partly shown) [Compound 303] | > 1000 nM | – |
| O=C1NCC(C(=O)NC[C@H]2C[C@H](c3c(-c4ccc(F)cc4)[nH]c4c(F)cc(F)cc43)C2)O1 (stereo partly shown) [Compound 269] | > 1000 nM | – |
| NC1(C(=O)NC[C@H]2C[C@H](c3c(-c4ccc(F)cc4)[nH]c4c(F)cc(F)cc43)C2)CCC1 [Compound 244] | > 1000 nM | – |
| CS(=O)(=O)CCC(=O)N[C@H]1C[C@H](c2c(-c3ccc(F)cc3)[nH]c3c(F)cc(F)cc32)C1 [Compound 119] | > 1000 nM | – |
| O=C(CC1CCCOC1)N[C@H]1C[C@H](c2c(-c3ccc(F)cc3)[nH]c3c(F)cc(F)cc32)C1 (stereo partly shown) [Compound 118] | > 1000 nM | – |
| O=C(CCN1CCCC1)N[C@H]1C[C@H](c2c(-c3ccc(F)cc3)[nH]c3c(F)cc(F)cc32)C1 [Compound 109] | > 1000 nM | – |
| O=C(CO)N[C@H]1C[C@H](c2c(-c3ccc(F)cc3)[nH]c3c(F)cc(F)cc32)C1 [Compound 136] | < 250 nM | – |
| O=C(NC[C@H]1C[C@@H](c2c(-c3ccc(F)cc3)[nH]c3c(F)cc(F)cc32)C1)c1cnn[nH]1 [Compound 309] | > 1000 nM | – |

Now from value to molecule, other results behind:

| IC50 [1] | SMILES | IC50 (Thallium Assay (IC50)) |
| --- | --- | --- |
| > 1000 nM | NCC1CC(c2c(-c3ccc(C4CC4)cc3)[nH]c3ccc(F)cc23)C1 (stereo not shown) [Compound 177] | – |
| > 1000 nM | CC1(C(=O)NC[C@H]2C[C@@H](c3c(-c4ccc(F)cc4)[nH]c4c(F)cc(F)cc43)C2)CC(=O)C1 [Compound 284] | – |
| > 1000 nM | O=S(=O)(NC[C@H]1C[C@H](c2c(-c3ccc(F)cc3)[nH]c3c(F)cc(F)cc32)C1)NC(CO)C(F)(F)F (stereo partly shown) [Compound 358] | – |
| > 1000 nM | O=C(CN1CCOCC1)NC[C@H]1C[C@@H](c2c(-c3ccc(F)cc3)[nH]c3c(F)cc(F)cc32)C1 [Compound 272] | – |
| > 1000 nM | CC[C@H](NC(=O)OC(C)(C)C)C(=O)NC[C@H]1C[C@H](c2c(-c3ccc(F)cc3)[nH]c3c(F)cc(F)cc32)C1 [Compound 258] | – |
| > 1000 nM | O=C1CCC(C(=O)N[C@H]2C[C@H](c3c(-c4ccc(F)cc4)[nH]c4c(F)cc(F)cc43)C2)CN1 (stereo partly shown) [Compound 90] | – |
| > 1000 nM | N#CCC(=O)N[C@H]1C[C@@H](c2c(-c3ccc(F)cc3)[nH]c3c(F)cc(F)cc32)C1 [Compound 67] | – |
| > 1000 nM | CC(CC(=O)NC[C@H]1C[C@@H](c2c(-c3ccc(F)cc3)[nH]c3c(F)cc(F)cc32)C1)N1CCOCC1 (mixture of isomers) [Compound 318] | – |
| 250 to 1000 nM | O=C1C[C@@H](C(=O)NC[C@H]2C[C@H](c3c(-c4ccc(F)cc4)[nH]c4c(F)cc(F)cc43)C2)N1 [Compound 218] | – |
| 250 to 1000 nM | O=C(CCO)NC[C@H]1C[C@@H](c2c(-c3ccc(F)cc3)[nH]c3c(F)cc(F)cc32)C1 [Compound 206] | – |
| 250 to 1000 nM | NC(=O)C(=O)N1CC(Cc2c(-c3ccc(F)cc3)[nH]c3c(F)cc(F)cc23)C1 [Compound 455, 2-[3-[[5,7-difluoro-2-(4-fluorophenyl)-1H-indol-3-yl]methyl]azetidin-1-yl]-2-oxo-acetamide] | – |
| < 250 nM | N[C@H]1C[C@@H](Cc2c(-c3ccc(F)cc3)[nH]c3c(F)cc(F)cc23)C1 [Compound 158, cis-3-[[5,7-difluoro-2-(4-fluorophenyl)-1H-indol-3-yl]methyl]cyclobutanamine] | – |
| 250 to 1000 nM | O=S(=O)(N[C@H]1C[C@H](c2c(-c3ccc(F)cc3)[nH]c3c(F)cc(F)cc32)C1)c1c[nH]cn1 [Compound 150] | – |
| 250 to 1000 nM | O=C1CCC(NCC2CC(c3c(-c4ccc(F)cc4)[nH]c4c(F)cc(F)cc34)C2)C(=O)N1 (stereo not shown) [Compound 382] | – |
| 250 to 1000 nM | NC(=O)C1(C(=O)N[C@H]2C[C@H](c3c(-c4ccc(F)cc4)[nH]c4c(F)cc(F)cc43)C2)CC1 [Compound 446, N^1′-[3-[5,7-difluoro-2-(4-fluorophenyl)-1H-indol-3-yl]cyclobutyl]cyclopropane-1,1-dicarboxamide] | – |
| 250 to 1000 nM | O=C(N[C@H]1C[C@H](c2c(-c3ccc(F)cc3)[nH]c3c(F)cc(F)cc32)C1)C(O)C1CC1 (stereo partly shown) [Compound 92] | – |
| < 250 nM | O=C(NC[C@H]1C[C@H](c2c(-c3ccc(F)cc3)[nH]c3c(F)cc(F)cc32)C1)C(F)F [Compound 200] | – |
| 250 to 1000 nM | CN(C)C(=O)CCC(=O)N[C@H]1C[C@H](c2c(-c3ccc(F)cc3)[nH]c3c(F)cc(F)cc32)C1 [Compound 123] | – |
| 250 to 1000 nM | O=C(c1c[nH]cn1)N1CC(c2c(-c3ccc(F)cc3)[nH]c3c(F)cc(F)cc23)C1 [Compound 441, (3-(5,7-difluoro-2-(4-fluorophenyl)-1H-indol-3-yl)azetidin-1-yl)(1H-imidazol-4-yl)methanone] | – |
| < 250 nM | O=C(CO)NC[C@H]1C[C@H](c2c(-c3ccc(F)cc3)[nH]c3c(F)cc(F)cc32)C1 [Compound 203] | – |
